Reference: the supplement of paper PMC10307832

Columns and labels:
Experiment in all cases: relative viability (nuclei count vs DMSO), 5 days (fraction); higher = more cells survive
4EGI-1 + Crizotinib = compound: O=C(O)C(Cc1ccccc1[N+](=O)[O-])=NNc1nc(-c2ccc(Cl)c(Cl)c2)cs1 (mixture of isomers) [4EGI-1] + C[C@@H](Oc1cc(-c2cnn(C3CCNCC3)c2)cnc1N)c1c(Cl)ccc(F)c1Cl [Crizotinib] (partner 1 µM)
Procedure, shortened: (§1)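 Relative viability equals treated-well nuclei counts divided by vehicle-well nuclei counts. Counts came from 4× images of lung cancer cell lines grown in 1536-well plates for 5 days after pin-tool dosing on the day after seeding. Dosing used one drug alone or a fixed anchor-drug dose plus five library-drug doses (not always all listed) in √10 steps, and values are medians of duplicate plates.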

XMD8-85 + AZD7762 = compound: CN1CCN(CC1)C2=CC(=C(C=C2)NC3=NC=C4C(=N3)N(C5=CC=CC=C5C(=O)N4C)C)OC [XMD8-85] + NC(=O)Nc1cc(-c2cccc(F)c2)sc1C(=O)N[C@H]1CCCNC1 [AZD7762] (partner 0.2 µM)
Procedure, shortened: as §1

4EGI-1 + Foretinib = compound: O=C(O)C(Cc1ccccc1[N+](=O)[O-])=NNc1nc(-c2ccc(Cl)c(Cl)c2)cs1 (mixture of isomers) [4EGI-1] + COc1cc2c(Oc3ccc(NC(=O)C4(C(=O)Nc5ccc(F)cc5)CC4)cc3F)ccnc2cc1OCCCN1CCOCC1 [Foretinib] (partner 0.25 µM)
Procedure, shortened: as §1

XMD8-85 + Olaparib = compound: CN1CCN(CC1)C2=CC(=C(C=C2)NC3=NC=C4C(=N3)N(C5=CC=CC=C5C(=O)N4C)C)OC [XMD8-85] + O=C(c1cc(Cc2n[nH]c(=O)c3ccccc23)ccc1F)N1CCN(C(=O)C2CC2)CC1 [Olaparib] (partner 8 µM)
Procedure, shortened: as §1

| Cell Line | relative viability (4EGI-1 + Crizotinib; first compound 0.5 µM) | relative viability (4EGI-1 + Crizotinib; first compound 5 µM) | relative viability (4EGI-1 + Crizotinib; first compound 15.81 µM) | relative viability (4EGI-1 + Crizotinib; first compound 50 µM) | relative viability (XMD8-85 + AZD7762; first compound 0.08 µM) | relative viability (XMD8-85 + AZD7762; first compound 0.253 µM) | relative viability (XMD8-85 + AZD7762; first compound 0.8 µM) | relative viability (XMD8-85 + AZD7762; first compound 2.53 µM) | relative viability (XMD8-85 + AZD7762; first compound 8 µM) | relative viability (4EGI-1 + Foretinib; first compound 0.5 µM) | relative viability (4EGI-1 + Foretinib; first compound 5 µM) | relative viability (4EGI-1 + Foretinib; first compound 15.81 µM) | relative viability (4EGI-1 + Foretinib; first compound 50 µM) | relative viability (XMD8-85 + Olaparib; first compound 0.08 µM) | relative viability (XMD8-85 + Olaparib; first compound 0.253 µM) | relative viability (XMD8-85 + Olaparib; first compound 0.8 µM) | relative viability (XMD8-85 + Olaparib; first compound 2.53 µM) | relative viability (XMD8-85 + Olaparib; first compound 8 µM) | relative viability (4EGI-1 + Crizotinib; first compound 1.581 µM) | relative viability (4EGI-1 + Foretinib; first compound 1.581 µM) |
| --- | --- | --- | --- | --- | --- | --- | --- | --- | --- | --- | --- | --- | --- | --- | --- | --- | --- | --- | --- | --- |
| NCI-H460 | 1.2 | 1.02 | 0.517 | 0.0403 | 0.624 | 0.643 | 0.69 | 0.659 | 0.432 | 1.02 | 0.997 | 0.686 | 0.228 | 0.284 | 0.448 | 0.435 | 0.35 | 0.213 |  |  |
| HCC-366 | 0.641 | 0.605 | 0.506 | 0.529 | 0.216 | 0.311 | 0.335 | 0.336 | 0.259 | 0.972 | 0.905 | 0.985 | 0.308 | 0.231 | 0.358 | 0.385 |  | 0.242 | 0.277 | 0.701 |
| NCI-H1755 | 0.854 | 0.875 | 0.836 | 0.318 | 0.542 | 0.663 | 0.382 | 0.519 | 0.512 | 0.953 | 0.872 | 0.815 | 0.704 | 0.974 | 0.906 | 0.862 | 0.85 | 0.899 | 0.824 | 0.854 |
| NCI-H2087 | 0.896 | 0.811 | 0.643 | 0.478 | 1.42 | 1.25 | 1.39 | 1.23 | 0.96 | 1.23 | 1.39 | 0.855 | 0.29 | 0.527 | 0.688 | 0.7 |  | 0.533 | 0.754 | 1.09 |
| CAL-12T | 0.663 | 0.742 | 0.618 | 0.281 | 0.545 | 0.642 | 0.604 |  | 0.466 | 1.11 | 1.08 | 1.07 | 0.589 | 0.704 | 0.721 | 0.776 | 0.628 | 0.583 |  | 0.857 |
| NCI-H1355 | 1.18 | 1.03 | 0.779 | 0.748 | 0.678 | 0.697 | 0.798 | 0.817 |  | 0.932 | 0.962 | 0.851 | 0.738 | 0.744 | 0.79 | 0.714 | 0.657 | 0.589 | 0.952 | 0.87 |
| NCI-H2170 | 1.24 | 1.15 | 0.902 | 0.586 | 0.784 | 0.937 | 0.92 | 0.918 | 0.759 | 0.951 | 0.74 | 1.01 | 0.582 | 0.51 | 0.627 | 0.599 | 0.601 | 0.532 | 1.15 | 0.958 |
| LK-2 | 0.244 | 0.253 | 0.256 | 0.216 | 0.288 | 0.334 | 0.322 | 0.254 | 0.284 | 1.23 | 1.36 | 1.42 | 0.929 | 0.802 | 0.815 | 0.555 | 0.669 | 0.448 |  |  |
| PC-14 | 1.08 | 0.875 |  | 0.907 | 0.352 | 0.364 | 0.34 | 0.394 | 0.18 | 1.01 | 1.09 |  | 0.879 | 0.253 | 0.213 | 0.229 | 0.237 | 0.14 | 0.617 | 0.799 |
| LXF-289 | 0.889 | 0.817 | 0.672 | 0.332 | 1.09 | 1.16 | 1.16 | 1.12 | 0.995 | 0.992 | 1 | 0.943 | 0.771 | 0.972 | 1.08 | 1.09 | 0.94 | 0.915 | 0.803 | 0.944 |
| NCI-H23 | 0.592 | 0.654 | 0.501 | 0.481 | 0.173 | 0.287 | 0.23 | 0.18 | 0.2 | 1.04 | 1.1 | 0.933 | 0.638 | 0.313 | 0.308 | 0.302 | 0.282 | 0.254 |  |  |
| NCI-H2405 | 0.865 | 0.909 | 0.896 | 0.854 | 0.636 | 0.741 | 0.73 | 0.708 | 0.467 | 1.06 | 1.13 | 1.13 | 1.02 | 0.908 | 0.919 | 0.949 | 0.859 | 0.817 | 0.747 | 1 |
| RERF-LC-KJ | 0.852 | 0.815 | 0.675 | 0.684 | 1.01 | 0.98 | 0.936 | 1.3 | 0.886 | 0.883 | 0.857 | 0.695 | 0.734 | 1.05 | 0.927 | 0.929 | 0.872 | 0.769 | 0.676 | 0.77 |
| HCC-827 | 0.935 | 0.868 |  | 0.685 | 0.23 | 0.185 | 0.231 | 0.263 | 0.206 | 1.07 | 1.05 |  | 0.339 | 0.67 | 0.714 | 0.684 | 0.739 | 0.701 | 0.819 | 0.889 |
| ABC-1 | 1.23 | 1.09 | 0.472 | 0.259 | 0.904 | 0.805 | 0.799 | 0.876 | 0.859 | 1.21 | 1.17 | 0.587 | 0.271 | 0.919 | 0.864 | 0.781 | 0.764 | 0.795 | 0.7 | 0.896 |
| NCI-H358 | 0.566 | 0.645 | 0.378 | 0.247 | 0.446 | 0.497 | 0.667 | 0.639 | 0.399 | 0.739 | 0.84 | 0.515 | 0.11 | 0.508 | 0.565 | 0.625 | 0.691 | 0.445 | 0.413 | 0.657 |
